# Patent US4871723A, “Method for treating psoriasis by externally administering to a patient a pharmaceutical composition containing active-type vitamin D” (priority 1984, dated 1989)
# Where two headings read alike, the source gives them in different places.
# Columns and labels:
# [1] = tested on: psoriasis; conditions: clinical data, cited from earlier work
# [2] = amount of vitamin D3 in femoral muscles of rats 2 hours after ointment application or oral administration; type: in vivo, male Wistar-strain rats
# Protocol: (ii) Hair was removed from the femoral parts of five male Wistar-strain rats (body weight 220 to 230 g), and 100 mg of the ointment prepared in (i) was well rubbed into the hair-removed part of each animal. Two hours later, the rats were sacrificed, and the skin at the ointment-administeredsite was carefully removed and the muscles inside were taken out.
# [3] = tested on: psoriasis vulgaris; assay: therapeutic effect of ointment on psoriasis vulgaris of a person; type: in vivo; set-up: key to degree of severity: 4: very serious; 3: serious; 2: medium; 1: light; 0: disappeared
# Protocol: (i) A suitable amount of 1α,24(R)-dihydroxycholecalciferol was dissolved in diisopropyl adipate, and the solution was uniformly mixed with white vaseline to form an ointment. The mixing ratio of diisopropyl adipate to white vaseline was always maintained at 1:4 by weight, and the concentration of 1α,24(R)-dihydroxycholecalciferol in the ointment was adjusted to 400 micrograms/30 mg, 40 micrograms/30 mg, and 4 micrograms/30 mg.
# (ii) Each of the three ointment thus prepared was applied to the site of psoriasis vulgaris of a person, and their therapeutic effects were evaluated. Specifically, ±he ointment having a 1α,24(R)-(OH)2 -D3 concentration of 400 micrograms/30 mg was applied twice daily each in an amount of 30 mg to psoriasis vulgaris at the lower part of the right femur (diseased part A). The ointment having a 1α,24(R)-(OH)2 -D3 concentration of 40 micrograms/[…] was applied twice a day each in an amount of 30 mg to psoriasis vulgaris at the lower part of the left femur (diseased part B). The ointment having a 1α,24(R)-(OH concentration of 4 micrograms/30 mg was applied twice a day each in an amount of 30 mg to psoriasis vulgaris at the middle part of the right femur (the diseased part C).
# The therapeutic effects were evaluated on a scale of 5 grades as follows: […]
# [4] = control group, oral 0.5 microgram
# [5] = ointment-applied group, 100 mg ointment (5 micrograms/g)
structure (smiles),measurement,setting,value
"C=C1/C(=C\C=C2/CCC[C@]3(C)[C@@H]([C@H](C)CCCC(C)(C)O)CC[C@@H]23)C[C@@H](O)C[C@@H]1O [1α,25-(OH)2 --D3, 1α,25-dihydroxycholecalciferol]",effectiveness for the treatment of psoriasis,[1]; external application,effective
same,effectiveness for the treatment of psoriasis,[1]; oral administration,effective
"C=C1/C(=C\C=C2/CCC[C@]3(C)[C@@H]([C@H](C)CCCC(C)C)CC[C@@H]23)C[C@@H](O)C[C@@H]1O [Example 1α-OH--D3, 1α-hydroxycholecalciferol]","Amounts in the femoral muscles, 1st time (5 rats)",[2]; [4],103
same,"Amounts in the femoral muscles, 2nd time (5 rats)",[2]; [4],98
same,"Amounts in the femoral muscles, 3rd time (5 rats)",[2]; [4],126
same,"Amounts in the femoral muscles, 1st time (5 rats)",[2]; [5],441
same,"Amounts in the femoral muscles, 2nd time (5 rats)",[2]; [5],607
same,"Amounts in the femoral muscles, 3rd time (5 rats)",[2]; [5],588
same,effectiveness for the treatment of psoriasis,[1]; oral administration,effective
"C=C1/C(=C\C=C2/CCC[C@]3(C)[C@@H]([C@H](C)CC[C@@H](O)C(C)C)CC[C@@H]23)C[C@@H](O)C[C@@H]1O [1α,24(R)-(OH)2 -D3, 1α,24(R)-dihydroxycholecalciferol]",relapse of lesion,"[3]; after more than 30 days from stopping of drug application, diseased parts A to C",no relapse of lesion was noted
same,therapeutic effect on psoriasis vulgaris,"[3]; external application, ointment",good therapeutic effect
same,improvement of diseased parts,"[3]; five days after beginning of treatment, diseased parts A to C (400, 40, 4 micrograms/30 mg, twice daily), original severity 4",an improvement was observed in all cases
same,degree of severity,"[3]; ten days, all cases cured, diseased parts A to C (400, 40, 4 micrograms/30 mg, twice daily), original severity 4",0
